# From ChEMBL document CHEMBL1154339, “Pyranocoumarins: a new class of anti-hyperglycemic and anti-dyslipidemic agents” (Bioorg Med Chem Lett, 2009)
# Active and inactive are the calls of the source. No cut-off for these calls is given here.
# What was measured:
# Rattus norvegicus [1] = assay: Antihyperglycemic activity in sucrose loaded Charles Foster/Wistar rat model assessed as reduction in blood glucose level at 100 mg/kg; type: functional; design: scale not given: the % may be the effect or the level left
# Rattus norvegicus [2] = assay: Antihyperglycemic activity in sucrose challenged streptozotocin-induced diabetic Sprague-Dawley rat model assessed as reduction in blood glucose level at 100 mg/kg after 24 hrs; type: functional; design: scale not given: the % may be the effect or the level left
# Mus musculus [3] = assay: Antihyperglycemic in leptin receptor deficient mouse C57BL/KsBom-db assessed as blood glucose lowering activity at 100 mg/kg after 5 days by oral glucose tolerance test; type: functional
# Mus musculus [4] = assay: Antihyperglycemic in leptin receptor deficient mouse C57BL/KsBom-db assessed as blood glucose lowering activity at 100 mg/kg after 10 days by oral glucose tolerance test; type: functional
# [5] = molecular target: T1, Glucose-6-phosphatase catalytic subunit 1 (Homo sapiens) (UniProt P35575); assay: Inhibition of glucose 6 phosphatase assessed as inorganic phosphate release at 100 uM
# T1 sequence (whole entry): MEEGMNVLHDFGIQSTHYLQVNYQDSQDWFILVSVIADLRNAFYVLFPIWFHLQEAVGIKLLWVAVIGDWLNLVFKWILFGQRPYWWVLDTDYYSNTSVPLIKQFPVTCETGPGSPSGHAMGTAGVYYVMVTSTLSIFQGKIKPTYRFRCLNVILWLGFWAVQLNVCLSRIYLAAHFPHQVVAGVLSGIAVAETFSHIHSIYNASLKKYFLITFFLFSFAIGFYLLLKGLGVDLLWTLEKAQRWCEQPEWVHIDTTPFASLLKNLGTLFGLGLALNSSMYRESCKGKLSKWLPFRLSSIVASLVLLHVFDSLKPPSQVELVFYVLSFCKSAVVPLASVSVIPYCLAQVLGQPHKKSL
# [6] = Inhibition of glycogen phosphorylase assessed as inorganic phosphate release at 100 uM
# [7] = molecular target: Maltase-glucoamylase (Homo sapiens) (UniProt O43451); assay: Inhibition of alpha-glucosidase at 100 uM
# [8] = molecular target: Dipeptidyl peptidase 4 (Homo sapiens) (UniProt P27487); assay: Inhibition of DPP4 at 100 uM
# [9] = molecular target: T2, Tyrosine-protein phosphatase non-receptor type 1 (Homo sapiens) (UniProt P18031); assay: Inhibition of PTP1B at 100 uM
# T2 sequence (whole entry): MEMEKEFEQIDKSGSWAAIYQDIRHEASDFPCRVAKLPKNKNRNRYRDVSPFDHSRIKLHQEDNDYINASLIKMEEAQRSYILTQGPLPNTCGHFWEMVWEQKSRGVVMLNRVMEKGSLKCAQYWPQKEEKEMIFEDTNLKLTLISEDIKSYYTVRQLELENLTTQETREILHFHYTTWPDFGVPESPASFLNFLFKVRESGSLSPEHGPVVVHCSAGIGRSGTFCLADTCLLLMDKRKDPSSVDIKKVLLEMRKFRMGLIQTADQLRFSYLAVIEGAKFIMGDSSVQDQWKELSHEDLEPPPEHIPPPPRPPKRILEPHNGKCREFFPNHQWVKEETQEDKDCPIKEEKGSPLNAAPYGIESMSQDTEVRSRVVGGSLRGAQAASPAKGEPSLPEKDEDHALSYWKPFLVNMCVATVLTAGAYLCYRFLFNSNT
# [10] = molecular target: T3, Tyrosine-protein phosphatase non-receptor type 1 (Homo sapiens, UniProt P18031); assay: Inhibition of PTP1B
# T3 sequence (P18031 whole entry): T2 sequence (whole entry)
# Rattus norvegicus [11] = assay: Antidyslipidemic activity against triton WR-1339-induced hyperlipidemia in Charles Foster rat assessed as reduction in plasma total cholesterol level at 100 mg/kg, po after 18 hrs; type: functional
# Rattus norvegicus [12] = assay: Antidyslipidemic activity against triton WR-1339-induced hyperlipidemia in Charles Foster rat assessed as reduction in plasma phospholipid level at 100 mg/kg, po after 18 hrs; type: functional
# Rattus norvegicus [13] = assay: Antidyslipidemic activity against triton WR-1339-induced hyperlipidemia in Charles Foster rat assessed as reduction in plasma triglyceride level at 100 mg/kg, po after 18 hrs; type: functional
# Chain of Dipeptidyl peptidase 4 (Homo sapiens) (P27487 whole entry, looked up): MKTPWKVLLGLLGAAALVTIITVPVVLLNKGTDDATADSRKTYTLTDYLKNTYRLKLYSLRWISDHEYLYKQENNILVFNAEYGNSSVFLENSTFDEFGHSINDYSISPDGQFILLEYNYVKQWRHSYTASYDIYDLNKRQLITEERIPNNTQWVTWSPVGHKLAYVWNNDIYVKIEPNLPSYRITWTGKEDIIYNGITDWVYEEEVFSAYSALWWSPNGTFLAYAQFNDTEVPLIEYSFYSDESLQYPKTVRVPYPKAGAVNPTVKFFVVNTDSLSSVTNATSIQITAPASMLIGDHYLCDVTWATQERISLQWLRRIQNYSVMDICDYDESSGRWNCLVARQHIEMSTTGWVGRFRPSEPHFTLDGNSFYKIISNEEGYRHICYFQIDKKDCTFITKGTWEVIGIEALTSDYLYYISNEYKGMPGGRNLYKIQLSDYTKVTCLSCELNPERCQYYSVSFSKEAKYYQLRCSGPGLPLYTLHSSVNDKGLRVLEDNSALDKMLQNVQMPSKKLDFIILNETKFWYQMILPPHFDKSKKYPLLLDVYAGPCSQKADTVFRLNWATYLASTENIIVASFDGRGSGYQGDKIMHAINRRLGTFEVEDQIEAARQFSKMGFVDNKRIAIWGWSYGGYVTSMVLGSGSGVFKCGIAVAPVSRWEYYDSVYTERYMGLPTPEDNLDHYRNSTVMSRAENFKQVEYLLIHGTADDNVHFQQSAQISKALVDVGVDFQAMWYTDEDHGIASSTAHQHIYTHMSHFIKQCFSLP
# Chain of Maltase-glucoamylase (Homo sapiens) (O43451 whole entry, looked up): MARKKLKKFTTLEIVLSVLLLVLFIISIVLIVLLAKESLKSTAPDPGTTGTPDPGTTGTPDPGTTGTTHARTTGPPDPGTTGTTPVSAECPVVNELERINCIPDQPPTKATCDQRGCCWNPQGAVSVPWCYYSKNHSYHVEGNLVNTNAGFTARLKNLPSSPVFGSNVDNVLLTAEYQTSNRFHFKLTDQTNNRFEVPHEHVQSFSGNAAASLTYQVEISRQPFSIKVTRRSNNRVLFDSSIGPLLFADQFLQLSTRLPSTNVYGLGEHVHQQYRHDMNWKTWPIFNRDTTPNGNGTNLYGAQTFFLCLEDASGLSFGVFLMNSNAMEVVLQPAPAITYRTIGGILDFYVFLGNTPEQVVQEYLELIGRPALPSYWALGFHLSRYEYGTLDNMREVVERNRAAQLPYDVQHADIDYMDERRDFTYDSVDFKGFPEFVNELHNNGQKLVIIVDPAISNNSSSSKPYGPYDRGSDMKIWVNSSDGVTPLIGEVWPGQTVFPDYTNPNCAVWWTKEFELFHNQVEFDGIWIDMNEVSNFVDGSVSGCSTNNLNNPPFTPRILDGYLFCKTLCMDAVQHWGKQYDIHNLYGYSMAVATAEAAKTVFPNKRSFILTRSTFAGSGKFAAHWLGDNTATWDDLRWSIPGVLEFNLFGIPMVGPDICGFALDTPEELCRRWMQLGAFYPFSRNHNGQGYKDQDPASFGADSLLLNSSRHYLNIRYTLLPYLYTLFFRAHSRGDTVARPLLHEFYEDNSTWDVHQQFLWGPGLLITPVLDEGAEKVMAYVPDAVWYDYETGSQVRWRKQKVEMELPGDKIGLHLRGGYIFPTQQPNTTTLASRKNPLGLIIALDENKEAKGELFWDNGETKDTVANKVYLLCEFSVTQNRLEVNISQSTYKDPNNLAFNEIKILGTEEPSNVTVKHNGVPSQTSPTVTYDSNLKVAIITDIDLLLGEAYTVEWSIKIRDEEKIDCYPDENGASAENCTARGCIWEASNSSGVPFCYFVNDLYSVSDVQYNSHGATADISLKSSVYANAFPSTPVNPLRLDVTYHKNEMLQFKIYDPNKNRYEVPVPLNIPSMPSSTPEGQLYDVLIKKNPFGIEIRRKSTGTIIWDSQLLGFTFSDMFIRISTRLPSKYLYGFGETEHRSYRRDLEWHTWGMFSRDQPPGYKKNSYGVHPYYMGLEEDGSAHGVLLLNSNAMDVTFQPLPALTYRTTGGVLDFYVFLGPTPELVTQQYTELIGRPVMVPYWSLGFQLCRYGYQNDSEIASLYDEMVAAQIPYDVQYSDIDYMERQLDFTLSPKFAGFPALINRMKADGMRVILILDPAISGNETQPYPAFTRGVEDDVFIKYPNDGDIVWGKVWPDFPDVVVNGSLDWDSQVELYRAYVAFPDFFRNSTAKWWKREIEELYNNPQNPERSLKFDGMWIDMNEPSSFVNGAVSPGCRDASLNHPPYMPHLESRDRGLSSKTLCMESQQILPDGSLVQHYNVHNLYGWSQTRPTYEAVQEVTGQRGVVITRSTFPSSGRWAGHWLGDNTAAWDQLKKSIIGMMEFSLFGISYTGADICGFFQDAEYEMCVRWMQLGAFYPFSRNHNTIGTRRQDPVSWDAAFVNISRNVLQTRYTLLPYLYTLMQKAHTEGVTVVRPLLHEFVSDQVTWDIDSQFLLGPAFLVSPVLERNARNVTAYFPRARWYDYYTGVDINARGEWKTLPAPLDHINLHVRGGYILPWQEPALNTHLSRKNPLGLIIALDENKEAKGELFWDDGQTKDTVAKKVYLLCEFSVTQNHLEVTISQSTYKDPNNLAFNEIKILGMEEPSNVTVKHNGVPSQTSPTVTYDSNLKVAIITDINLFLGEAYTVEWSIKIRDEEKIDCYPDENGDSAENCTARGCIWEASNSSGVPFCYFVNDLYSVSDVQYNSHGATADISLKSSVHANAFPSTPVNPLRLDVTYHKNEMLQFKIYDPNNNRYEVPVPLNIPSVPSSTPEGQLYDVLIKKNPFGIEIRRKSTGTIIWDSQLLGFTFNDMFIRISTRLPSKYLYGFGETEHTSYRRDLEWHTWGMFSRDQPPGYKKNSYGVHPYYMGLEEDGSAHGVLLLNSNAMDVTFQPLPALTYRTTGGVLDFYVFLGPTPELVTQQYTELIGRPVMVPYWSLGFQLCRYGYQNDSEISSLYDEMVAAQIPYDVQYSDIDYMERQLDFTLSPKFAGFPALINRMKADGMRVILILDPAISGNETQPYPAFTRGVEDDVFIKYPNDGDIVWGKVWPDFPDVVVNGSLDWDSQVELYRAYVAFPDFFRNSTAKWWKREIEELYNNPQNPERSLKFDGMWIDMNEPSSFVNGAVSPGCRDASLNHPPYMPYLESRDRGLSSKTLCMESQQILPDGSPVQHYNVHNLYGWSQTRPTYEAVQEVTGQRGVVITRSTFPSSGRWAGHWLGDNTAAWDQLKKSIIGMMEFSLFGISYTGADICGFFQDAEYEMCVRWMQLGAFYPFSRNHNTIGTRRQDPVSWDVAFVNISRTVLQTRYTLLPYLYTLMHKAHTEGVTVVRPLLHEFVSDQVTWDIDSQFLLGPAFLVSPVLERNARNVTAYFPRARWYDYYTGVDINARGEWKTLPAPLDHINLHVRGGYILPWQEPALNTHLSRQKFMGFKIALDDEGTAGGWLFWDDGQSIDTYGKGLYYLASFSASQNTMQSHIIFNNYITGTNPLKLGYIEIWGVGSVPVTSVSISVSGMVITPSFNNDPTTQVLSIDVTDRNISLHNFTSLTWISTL
SMILES,Activity (Rattus norvegicus [1]),Activity (Rattus norvegicus [2]),Activity (Mus musculus [3]),Activity (Mus musculus [4]),inhibition [5],inhibition [6],inhibition [7],inhibition [8],inhibition [9],IC50 [10],Activity (Rattus norvegicus [11]),Activity (Rattus norvegicus [12]),Activity (Rattus norvegicus [13])
CCOCC1(CN2CCCCC2)COc2ccc3c(C)cc(=O)oc3c2C1=O (stereo not drawn),38.1%,37.7%,19.5%,42%,6.56%,8.5%,inactive,12.6%,88.5%,36.2 µM,Active,Active,Active
Cc1cc(=O)oc2c3c(ccc12)OCC(CO)(CN1CCCCC1)C3=O (stereo not drawn),–,–,–,–,7.36%,inactive,37.3%,inactive,64%,62.1 µM,Active,Active,Active
Cc1cc(=O)oc2c3c(ccc12)OCC(CO)(CN1CCCC1)C3=O (stereo not drawn),30.3%,24%,–,–,5.83%,8.3%,22.1%,8.3%,74.6%,56.7 µM,–,–,–
Cc1cc(=O)oc2c3c(ccc12)OCC(CO)(CN1CCOCC1)C3=O (stereo not drawn),28.2%,25.3%,–,–,3.5%,inactive,34.3%,12%,83.3%,52.4 µM,Active,Active,Active
CCOCC1(CN2CCN(c3ccccn3)CC2)COc2ccc3c(C)cc(=O)oc3c2C1=O (stereo not drawn),–,–,–,–,9.67%,30.1%,11.3%,inactive,54.5%,76.2 µM,–,–,–
CCOCC1(CN2CCCC2)COc2ccc3c(C)cc(=O)oc3c2C1=O (stereo not drawn),31.8%,28.8%,–,–,8.31%,8.3%,12%,13.2%,72.1%,82.7 µM,–,–,–
Cc1cc(=O)oc2c3c(ccc12)OCC(CN1CCCCC1)(CN1CCCCC1)C3=O,–,–,–,–,13.8%,17.2%,7.3%,6.8%,33.3%,–,–,–,–
Cc1cc(=O)oc2c3c(ccc12)OCC(CN1CCN(c2ccccc2)CC1)(CN1CCN(c2ccccc2)CC1)C3=O,–,–,–,–,21.5%,22.1%,15.9%,15.2%,28.7%,–,–,–,–
Cc1cc(=O)oc2c3c(ccc12)OCC(CN1CCCC1)(CN1CCCC1)C3=O,–,–,–,–,8.28%,15.2%,inactive,8.2%,29.8%,–,–,–,–
CCOCC1(CN2CCOCC2)COc2ccc3c(C)cc(=O)oc3c2C1=O (stereo not drawn),35.5%,35.5%,21.1%,38%,12.4%,8.4%,inactive,inactive,92.2%,24.5 µM,Active,Active,Active
Cc1cc(=O)oc2c3c(ccc12)OCC(CN1CCOCC1)(CN1CCOCC1)C3=O,–,–,–,–,6.78%,12.8%,8.3%,8.8%,24.7%,–,–,–,–
CCN(CC)CC1(CN(CC)CC)COc2ccc3c(C)cc(=O)oc3c2C1=O,–,–,–,–,9.45%,12.2%,8.5%,8.1%,41.3%,–,–,–,–
CCOCC1(CN2CCN(c3ccccc3)CC2)COc2ccc3c(C)cc(=O)oc3c2C1=O (stereo not drawn),–,–,–,–,31.7%,inactive,16.2%,inactive,62.3%,70.6 µM,–,–,–
Cc1cc(=O)oc2c3c(ccc12)OCC(CN1CCN(c2ccccn2)CC1)(CN1CCN(c2ccccn2)CC1)C3=O,–,–,–,–,28%,11%,15.8%,9.8%,41.3%,–,–,–,–
CCOCC1(CN2CCN(C)CC2)COc2ccc3c(C)cc(=O)oc3c2C1=O (stereo not drawn),32.5%,18.7%,–,–,17.4%,26.9%,inactive,7.9%,70.3%,65.5 µM,Active,Active,Active
CCCCN(CCCC)CC1(CN(CCCC)CCCC)COc2ccc3c(C)cc(=O)oc3c2C1=O,–,–,–,–,20.4%,11.1%,inactive,11.4%,43.6%,–,–,–,–
CCCCN(CCCC)CC1(COCC)COc2ccc3c(C)cc(=O)oc3c2C1=O (stereo not drawn),30.6%,24.4%,–,–,11.1%,8.7%,27.9%,inactive,80.5%,40.5 µM,Active,Active,Active
Cc1ccc(C)c(OCCCC(C)(C)C(=O)O)c1 [GEMFIBROZIL],–,–,–,–,–,–,–,–,–,–,37.1%,39.1%,36.1%
CCOCC1(CN(CC)CC)COc2ccc3c(C)cc(=O)oc3c2C1=O (stereo not drawn),–,–,–,–,24.2%,inactive,inactive,inactive,74.1%,90.4 µM,Active,Active,Active
Cc1cc(=O)oc2c3c(ccc12)OCC(CN1CCN(C)CC1)(CN1CCN(C)CC1)C3=O,–,–,–,–,13%,10.2%,6.4%,12.5%,22%,–,–,–,–
